In patent US20110071169A1, “Preparation of polymorphic form of lapatinib ditosylate” (MAI DE LTD, priority 2009, published 2011):

Experiments:
[1] = Thermal phase stability on heating; assay type: physicochemical; conditions: heating of the crystalline form
[2] = Stability study of bulk material (stability-indicating HPLC, polymorphic form); conditions: elevated temperature and humidity (40° C./75%)
Experimental: The stability of Form A or Form B of lapatinib ditosylate bulk material and tablets is assessed by storing samples for up to 12 weeks at 25° C./60% RH or up to 5 weeks at 40° C./75% RH. Changes are monitored using a stability-indicating HPLC method. Results were calculated by normalized peak area (npa). Degradants are identified by comparison of their relative retention times against impurity standards.

[3] = Solubility in solvent mixtures; assay type: physicochemical
Experimental: The use of a relatively concentrated solution, e.g. about 5 mg/mL or above 5 mg/mL therefore is preferred.
In a preferred aspect, Form A of lapatinib ditosylate may be prepared by slurring starting material, crude or pure lapatinib ditosylate, anhydrate or solvate, which can be obtained according to the procedures described in U.S. Pat. No. 7,157,466 (or WO02/02552) with an organic solvent or a mixture of two or more organic solvents under heat. The lapatinib ditosylate is soluble in a mixture of water and THF, but not soluble in non-polar organic solvents. The preferred organic solvent is tetrahydrofuran. The concentration of lapatinib ditosylate within the solution may range from about 0.1% by weight to the saturation point. This concentration will, of course, vary depending upon the temperature at which the co-solvent solution is held, with warmer temperatures generally allowing for the preparation of more concentrated solutions of lapatinib ditosylate. Preferably, the concentration (w/w %) of lapatinib ditosylate starting material in solution is about 0.5-15%, preferably about 1-10%, more preferably about 1.5-5%. The volume ratio of tetrahydrofuran to water is about 50-95:50-5, preferably about 70-95:30-5, more preferably about 80-95:20-5, most preferably about 85:15. Water is then added into the above suspension, and the mixture is heated, suitably to a temperature in the range of from about 45° C. to 85° C., such as about 50° C. to 75° C., for example about 65-70° C. until all solid materials are dissolved. The clear and hot solution is allowed to cool down to ambient temperature, and the cooled solution is kept at ambient temperature for crystallization. The crystal Form A of lapatinib ditosylate is formed over a period of 1 hour to 4 days, and the crystal Form A is recovered from the solvent by filtration. The obtained crystal From A can be dried under a vacuum oven at about 20° C.-60° C., preferably at about 25° C.-50° C., more preferably at about 25° C.-35° C., and most preferably at […] for about 10-40 hours to remove the solvent residues.
In a preferred aspect, Form B of lapatinib ditosylate may be prepared by slurring starting material, crude or pure lapatinib ditosylate, anhydrate or solvate, which can be obtained according to the procedures described in U.S. Pat. No. 7,157,466 (or WO02/02552) with an organic solvent or a mixture of two or more organic solvents under heat. The lapatinib ditosylate is soluble in a mixture of water and THF, but not soluble in non-polar solvent. The preferred organic solvent is tetrahydrofuran. The concentration of lapatinib ditosylate within the solution may range from about 0.1% by weight to the saturation point. […]

heating temperature up to which no phase transformation occurs [1] | time for which polymorph (phase) and chemical stability was demonstrated [2] | solubility (in words) ([3]; mixture of water and THF) | solubility (in words) ([3]; mixture of water and methanol or ethanol) | concentration of complete dissolution ([3]; mixture of water and methanol or ethanol, room temperature) [µg/mL] | solubility (in words) ([3]; non-polar organic solvents) | Compound
up to 40 °C | over 5 weeks |  |  |  |  | CS(=O)(=O)CCNCc1ccc(-c2ccc3ncnc(Nc4ccc(OCc5cccc(F)c5)c(Cl)c4)c3c2)o1.Cc1ccc(S(=O)(=O)O)cc1 [Form A, hydrate ditosylate salt of N-[3-chloro-4-[(3-fluorophenyl)methoxy]phenyl]-6-[5-[[[2-(methylsulfonyl)ethyl]amino]methyl]-2-furanyl]-4-Quinazolinamine]
up to 45 °C |  |  |  |  |  | CS(=O)(=O)CCNCc1ccc(-c2ccc3ncnc(Nc4ccc(OCc5cccc(F)c5)c(Cl)c4)c3c2)o1.Cc1ccc(S(=O)(=O)O)cc1.Cc1ccc(S(=O)(=O)O)cc1 [Form B, ditosylate salt of N-[3-chloro-4-[(3-fluorophenyl)methoxy]phenyl]-6-[5-[[[2-(methylsulfonyl)ethyl]amino]methyl]-2-furanyl]-4-Quinazolinamine]
 |  | soluble | moderately soluble | ≥ 5000 | not soluble | CS(=O)(=O)CCNCc1ccc(-c2ccc3ncnc(Nc4ccc(OCc5cccc(F)c5)c(Cl)c4)c3c2)o1.Cc1ccc(S(=O)(=O)O)cc1 [lapatinib ditosylate, N-[3-chloro-4-[(3-fluorophenyl)methoxy]phenyl]-6-[5-[[[2-(methylsulfonyl)ethyl]amino]methyl]-2-furanyl]-4-Quinazolinamine, bis(4-methylbenzenesulfonate)]
